Laboratory results reported in US7118895B2, “Process for producing aglycon by using diglycosidase and flavor-improved food containing the aglycon and converting agent to be used in the process” (Amano Enzyme Inc., priority 2000, dated 2006).

Assays:
[1] = tested on: β-Glucosidase derived from almond; assay: Reactivity toward various isoflavone glycosides (HPLC); format: biochemical; design: unit not given here; details: 55 °C, pH 4.0
Summary of the method: (§1)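 Aglycone liberation was measured by reversed-phase HPLC (260 nm, calibration-curve quantitation) after ethanol extraction at 0, 1, 3 and 6 h. Reactions ran at 55° C, pH 4.0 (20 mM acetate), with each glycoside (from 2 mM methanol stock) and 0.75 AU/mL enzyme solution.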

[2] = tested on: β-Xylosidase derived from pectinase G; assay: as above; format: biochemical; design: unit not given here; details: 55 °C, pH 4.0
Summary of the method: as §1

Crude diglycosidase = assay: Examination of substrate concentration in the conversion into isoflavone aglycons by diglycosidase using soybean materials; format: biochemical, Penicillium multicolor IAM7153;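 also: percent of the isoflavone family total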
Summary of the method: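 Reaction at 55° C, shaken, pH 4.0 (20 mM acetate), using crude diglycosidase from a 1.88 AU/mL enzyme solution on soy flour, soymilk, defatted soybean or soy protein concentrate at 2, 5, 10, 20 or 30% (w/v). Isoflavone aglycons quantified by HPLC of ethanol extracts at 0, 1, 3, 6 h.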

Structure (SMILES): O=C(O)CC(=O)OC[C@H]1O[C@@H](Oc2cc(O)c3c(=O)c(-c4ccc(O)cc4)coc3c2)[C@H](O)[C@@H](O)[C@@H]1O [malonylgenistin, 6″-O-malonylgenistin]
- aglycon ([1]; Reaction time 0 h): 0
- glucoside ([1]; Reaction time 0 h): 100
- aglycon ([1]; Reaction time 1 h): 0
- glucoside ([1]; Reaction time 1 h): 100
- aglycon ([1]; Reaction time 3 h): 0
- glucoside ([1]; Reaction time 3 h): 100
- aglycon ([1]; Reaction time 6 h): 0
- glucoside ([1]; Reaction time 6 h): 100
- aglycon ([2]; Reaction time 0 h): 0
- glucoside ([2]; Reaction time 0 h): 100
- aglycon ([2]; Reaction time 1 h): 0
- glucoside ([2]; Reaction time 1 h): 100
- aglycon ([2]; Reaction time 3 h): 0.6
- glucoside ([2]; Reaction time 3 h): 99.4
- aglycon ([2]; Reaction time 6 h): 2
- glucoside ([2]; Reaction time 6 h): 98
- Decomposition efficiency: ratio of each glycoside/aglycon within its isoflavone family (Crude diglycosidase; concentrated soybean protein, substrate concentration 2%, heat treatment of enzyme no, reaction time 0 h): not detected
- Decomposition efficiency: ratio of each glycoside/aglycon within its isoflavone family (Crude diglycosidase; concentrated soybean protein, substrate concentration 2%, heat treatment of enzyme no, reaction time 1 h): not detected
- Decomposition efficiency: ratio of each glycoside/aglycon within its isoflavone family (Crude diglycosidase; concentrated soybean protein, substrate concentration 2%, heat treatment of enzyme no, reaction time 3 h): not detected
- Decomposition efficiency: ratio of each glycoside/aglycon within its isoflavone family (Crude diglycosidase; concentrated soybean protein, substrate concentration 2%, heat treatment of enzyme no, reaction time 6 h): not detected
- Decomposition efficiency: ratio of each glycoside/aglycon within its isoflavone family (Crude diglycosidase; concentrated soybean protein, substrate concentration 2%, heat treatment of enzyme yes, reaction time 6 h): not detected
- Decomposition efficiency: ratio of each glycoside/aglycon within its isoflavone family (Crude diglycosidase; concentrated soybean protein, substrate concentration 5%, heat treatment of enzyme no, reaction time 0 h): not detected
- Decomposition efficiency: ratio of each glycoside/aglycon within its isoflavone family (Crude diglycosidase; concentrated soybean protein, substrate concentration 5%, heat treatment of enzyme no, reaction time 1 h): not detected
- Decomposition efficiency: ratio of each glycoside/aglycon within its isoflavone family (Crude diglycosidase; concentrated soybean protein, substrate concentration 5%, heat treatment of enzyme no, reaction time 3 h): not detected
- Decomposition efficiency: ratio of each glycoside/aglycon within its isoflavone family (Crude diglycosidase; concentrated soybean protein, substrate concentration 5%, heat treatment of enzyme no, reaction time 6 h): not detected
- Decomposition efficiency: ratio of each glycoside/aglycon within its isoflavone family (Crude diglycosidase; concentrated soybean protein, substrate concentration 5%, heat treatment of enzyme yes, reaction time 6 h): not detected
- Decomposition efficiency: ratio of each glycoside/aglycon within its isoflavone family (Crude diglycosidase; concentrated soybean protein, substrate concentration 10%, heat treatment of enzyme no, reaction time 0 h): not detected
- Decomposition efficiency: ratio of each glycoside/aglycon within its isoflavone family (Crude diglycosidase; concentrated soybean protein, substrate concentration 10%, heat treatment of enzyme no, reaction time 1 h): not detected
- Decomposition efficiency: ratio of each glycoside/aglycon within its isoflavone family (Crude diglycosidase; concentrated soybean protein, substrate concentration 10%, heat treatment of enzyme no, reaction time 3 h): not detected
- Decomposition efficiency: ratio of each glycoside/aglycon within its isoflavone family (Crude diglycosidase; concentrated soybean protein, substrate concentration 10%, heat treatment of enzyme no, reaction time 6 h): not detected
- Decomposition efficiency: ratio of each glycoside/aglycon within its isoflavone family (Crude diglycosidase; concentrated soybean protein, substrate concentration 10%, heat treatment of enzyme yes, reaction time 6 h): not detected
- Decomposition efficiency: ratio of each glycoside/aglycon within its isoflavone family (Crude diglycosidase; concentrated soybean protein, substrate concentration 20%, heat treatment of enzyme no, reaction time 0 h): not detected
- Decomposition efficiency: ratio of each glycoside/aglycon within its isoflavone family (Crude diglycosidase; concentrated soybean protein, substrate concentration 20%, heat treatment of enzyme no, reaction time 1 h): not detected
- Decomposition efficiency: ratio of each glycoside/aglycon within its isoflavone family (Crude diglycosidase; concentrated soybean protein, substrate concentration 20%, heat treatment of enzyme no, reaction time 3 h): not detected
- Decomposition efficiency: ratio of each glycoside/aglycon within its isoflavone family (Crude diglycosidase; concentrated soybean protein, substrate concentration 20%, heat treatment of enzyme no, reaction time 6 h): not detected
- Decomposition efficiency: ratio of each glycoside/aglycon within its isoflavone family (Crude diglycosidase; concentrated soybean protein, substrate concentration 20%, heat treatment of enzyme yes, reaction time 6 h): not detected
- Decomposition efficiency: ratio of each glycoside/aglycon within its isoflavone family (Crude diglycosidase; concentrated soybean protein, substrate concentration 30%, heat treatment of enzyme no, reaction time 0 h): not detected
- Decomposition efficiency: ratio of each glycoside/aglycon within its isoflavone family (Crude diglycosidase; concentrated soybean protein, substrate concentration 30%, heat treatment of enzyme no, reaction time 1 h): not detected
- Decomposition efficiency: ratio of each glycoside/aglycon within its isoflavone family (Crude diglycosidase; concentrated soybean protein, substrate concentration 30%, heat treatment of enzyme no, reaction time 3 h): not detected
- Decomposition efficiency: ratio of each glycoside/aglycon within its isoflavone family (Crude diglycosidase; concentrated soybean protein, substrate concentration 30%, heat treatment of enzyme no, reaction time 6 h): not detected
- Decomposition efficiency: ratio of each glycoside/aglycon within its isoflavone family (Crude diglycosidase; concentrated soybean protein, substrate concentration 30%, heat treatment of enzyme yes, reaction time 6 h): not detected
- Decomposition efficiency: ratio of each glycoside/aglycon within its isoflavone family (Crude diglycosidase; roasted soy flour, substrate concentration 2%, heat treatment of enzyme no, reaction time 0 h): not detected
- Decomposition efficiency: ratio of each glycoside/aglycon within its isoflavone family (Crude diglycosidase; roasted soy flour, substrate concentration 2%, heat treatment of enzyme no, reaction time 1 h): not detected
- Decomposition efficiency: ratio of each glycoside/aglycon within its isoflavone family (Crude diglycosidase; roasted soy flour, substrate concentration 2%, heat treatment of enzyme no, reaction time 3 h): not detected
- Decomposition efficiency: ratio of each glycoside/aglycon within its isoflavone family (Crude diglycosidase; roasted soy flour, substrate concentration 2%, heat treatment of enzyme no, reaction time 6 h): not detected
- Decomposition efficiency: ratio of each glycoside/aglycon within its isoflavone family (Crude diglycosidase; roasted soy flour, substrate concentration 2%, heat treatment of enzyme yes, reaction time 6 h): not detected
- Decomposition efficiency: ratio of each glycoside/aglycon within its isoflavone family (Crude diglycosidase; roasted soy flour, substrate concentration 5%, heat treatment of enzyme no, reaction time 0 h): not detected
- Decomposition efficiency: ratio of each glycoside/aglycon within its isoflavone family (Crude diglycosidase; roasted soy flour, substrate concentration 5%, heat treatment of enzyme no, reaction time 1 h): not detected
- Decomposition efficiency: ratio of each glycoside/aglycon within its isoflavone family (Crude diglycosidase; roasted soy flour, substrate concentration 5%, heat treatment of enzyme no, reaction time 3 h): not detected
- Decomposition efficiency: ratio of each glycoside/aglycon within its isoflavone family (Crude diglycosidase; roasted soy flour, substrate concentration 5%, heat treatment of enzyme no, reaction time 6 h): not detected
- Decomposition efficiency: ratio of each glycoside/aglycon within its isoflavone family (Crude diglycosidase; roasted soy flour, substrate concentration 5%, heat treatment of enzyme yes, reaction time 6 h): not detected
- Decomposition efficiency: ratio of each glycoside/aglycon within its isoflavone family (Crude diglycosidase; roasted soy flour, substrate concentration 10%, heat treatment of enzyme no, reaction time 0 h): not detected
- Decomposition efficiency: ratio of each glycoside/aglycon within its isoflavone family (Crude diglycosidase; roasted soy flour, substrate concentration 10%, heat treatment of enzyme no, reaction time 1 h): not detected
